For series [1] the following is noted: dry state.
On series [2], the source says:
The most preferred pH range of the reconstituted solution is about 4 to about 5, because pain upon injection normally increases with […].
For this reason, it is not possible to give absolute gram amounts of cefbuperazone and lysine, arginine, lysine acetate and/or arginine acetate to produce a specific pH. The amount of each ingredient can readily be determined for individual batches of the two components by titration of the cefbuperazone with the other component.

Series [3] in a line: physchem. To be noted: dry state, % Loss.
A short description of series [4]: Hygroscopicity. It is filed as physicochemical. As to conditions: in words.
Series [5] in a line: pH of unit dosage forms reconstituted with Sterile Water for Injection. It is filed as physicochemical. As to conditions: diluted with Sterile Water for Injection, U.S.P. to 333 mg of cefbuperazone activity per ml.
A short description of series [6]: Intravenous toxicity test (LD50). As to conditions: mouse, in vivo, mice, dosing solution 333 mg of cefbuperazone activity per ml, parentheses = 95% confidence limits. The protocol: Intravenous toxicity tests were conducted in Swiss-Webster mice using the sodium salt of cefbuperazone and the compositions of the present invention. In each case, the dosing solution contained 333 mg of cefbuperazone activity per ml.

Series [7] concerns weanling female Sprague-Dawley rats. Description: Rat paw-lick test for pain on injection. The series is classed as in vivo. To be noted: pH 5.3; 0.1 ml subplantar, 333 mg activity per ml; mean 0-3 minutes after injection ± Standard Error. The protocol:
The test animals were weanling female Sprague-Dawley rats. The test solutions were injected into the subplantar tissue of the right or left hind paw, using a syringe with a 27 gauge, 1/2-inch needle. […] The paw-lick response, an indicator of the pain caused by the injection, was recorded for each rat for three minutes following the injection. A paw-licking episode is defined as a licking response followed by a turning of the head away from the paw or five seconds of uninterrupted licking.

The nature of series [8]: Stability in the dry state (% loss on storage at elevated temperature). As to conditions: 100°C - 1 day, listed as Lyophilized anhydrous sodium cefbuperazone.

Like-named read-outs stand apart in the source and are kept apart here. A value given as a limit tells only on which side of the number the result lay.

`CCN1CCN(C(=O)NC(C(=O)NC2(OC)C(=O)N3C(C(=O)O)=C(CSc4nnnn4C)CSC32)C(C)O)C(=O)C1=O` (stereo not shown) [Anhydrous cefbuperazone free acid]: the “% Loss” value in series [1] (72 h) worked out at 7.8%; in series [1] (168 h), 4.1%; in series [1] (672 h), 3.4%.

For `CCN1CCN(C(=O)NC(C(=O)NC2(OC)C(=O)N3C(C(=O)O)=C(CSc4nnnn4C)CSC32)C(C)O)C(=O)C1=O` (stereo not shown) [Cefbuperazone free acid dihydrate], the water solubility result in series [2] is “insufficiently water-soluble”. Moreover, the “pH at which solution of the cefbuperazone takes place” value in series [2] (264.4 mg suspended in 10 ml of water, titrated with aqueous L(+) lysine) is recorded as approximately 3.5. For the same molecule, the “% Loss” value in series [1] (24 h) is “+ 4.5%”; in series [1] (48 h) it was “+ 3.3%”; in series [1] (336 h) it was “+ 4.6%”; in series [1] (1344 h), “+ 2.2%”. The degraded at 168 h in series [3] was found to be 3.7%. The degraded at 840 h in series [3] amounted to 0%. The same molecule yielded a degraded at 1008 h in series [3] of 1.8%.

As for `CCN1CCN(C(=O)NC(C(=O)NC2(OC)C(=O)N3C(C(=O)O)=C(CSc4nnnn4C)CSC32)C(C)O)C(=O)C1=O` (stereo not shown) [Cefbuperazone free acid hemiacetonate], in series [4], the hygroscopicity entry is “non- hygroscopic”. The “% Loss” value in series [1] (48 h) and in series [1] (336 h) was 0% in each case.

Regarding `CCN1CCN(C(=O)NC(C(=O)NC2(OC)C(=O)N3C(C(=O)O)=C(CSc4nnnn4C)CSC32)C(C)O)C(=O)C1=O` (stereo not shown) [sodium cefbuperazone], the “pH of Solution” value in series [5] is 5.3. For the same molecule, the LD50 in series [6] was more than 5000 mg/kg. For the same molecule, the “Paw-Lick Response” value in series [7] is 5.20 ± 1.31 (10). Further, the “% Loss” value is on record as 37.2% in series [1] (72 h), 38.0% in series [1] (336 h), 35.0% in series [1] (1344 h) and “melts/decomposes” in series [8].

Broadly, the LD50 is the dose at which mortality reaches 50%.

Source of the values: patent EP0189941A2, “Antibiotic compositions” (Bristol-Myers Squibb Company, priority 1985, dated 1986).
